Source: ChEMBL document CHEMBL5303573, “Mapping human microbiome drug metabolism by gut bacteria and their genes” (Nature, 2019)

Assays:
[1] = The drug is tested on Bacteroides sp. WH2 strain: WH2 for biotransformation. The drug concentrations were measured before and after a 12-h incubation by liquid-chromatography-coupled mass spectrometry (LC–MS); settings: bacteroides sp. wh2, 12 h, 2 µM
[2] = The drug is tested on Clostridium ramosum strain: DSM1402 for biotransformation. The drug concentrations were measured before and after a 12-h incubation by liquid-chromatography-coupled mass spectrometry (LC–MS); settings: thomasclavelia ramosa, 2 µM
[3] = The drug is tested on Eubacterium ventriosum strain: ATCC27560 for biotransformation. The drug concentrations were measured before and after a 12-h incubation by liquid-chromatography-coupled mass spectrometry (LC–MS); format: ADME; set-up: dose 2 uM, timepoint 0 vs 12 hours; settings: 2 µM
[4] = The drug is tested on Escherichia coli strain: BW25113 for biotransformation. The drug concentrations were measured before and after a 12-h incubation by liquid-chromatography-coupled mass spectrometry (LC–MS); settings: 2 µM
[5] = The drug is tested on Blautia luti strain: DSM14534 for biotransformation. The drug concentrations were measured before and after a 12-h incubation by liquid-chromatography-coupled mass spectrometry (LC–MS); format: ADME; set-up: dose 2 uM, timepoint 0 vs 12 hours; settings: 2 µM
[6] = The drug is tested on Bacteroides coprophilus strain: DSM18228 for biotransformation. The drug concentrations were measured before and after a 12-h incubation by liquid-chromatography-coupled mass spectrometry (LC–MS); settings: 2 µM
[7] = The drug is tested on Collinsella intestinalis strain: DSM13280 for biotransformation. The drug concentrations were measured before and after a 12-h incubation by liquid-chromatography-coupled mass spectrometry (LC–MS); settings: 2 µM
[8] = bacteroides fragilis, 12 h, 2 µM
Description: The drug is tested on Bacteroides fragilis strain: 3397 (T10) for biotransformation. The drug concentrations were measured before and after a 12-h incubation by liquid-chromatography-coupled mass spectrometry (LC–MS)

[9] = The drug is tested on Dorea formicigenerans strain: ATCC27755 for biotransformation. The drug concentrations were measured before and after a 12-h incubation by liquid-chromatography-coupled mass spectrometry (LC–MS); settings: 2 µM
[10] = bacteroides thetaiotaomicron, 12 h, 2 µM
Description: The drug is tested on Bacteroides thetaiotaomicron strain: VPI-5482 for biotransformation. The drug concentrations were measured before and after a 12-h incubation by liquid-chromatography-coupled mass spectrometry (LC–MS)

[11] = The drug is tested on Anaerotruncus colihominis strain: DSM17241 for biotransformation. The drug concentrations were measured before and after a 12-h incubation by liquid-chromatography-coupled mass spectrometry (LC–MS); settings: 2 µM
[12] = The drug is tested on Blautia hansenii strain: DSM20583 for biotransformation. The drug concentrations were measured before and after a 12-h incubation by liquid-chromatography-coupled mass spectrometry (LC–MS); settings: 2 µM
[13] = The drug is tested on Bacteroides ovatus strain: ATCC8483 for biotransformation. The drug concentrations were measured before and after a 12-h incubation by liquid-chromatography-coupled mass spectrometry (LC–MS); settings: 2 µM
[14] = The drug is tested on Alistipes indistinctus strain: DSM22520 for biotransformation. The drug concentrations were measured before and after a 12-h incubation by liquid-chromatography-coupled mass spectrometry (LC–MS); settings: 2 µM
[15] = The drug is tested on Edwardsiella tarda strain: ATCC23685 for biotransformation. The drug concentrations were measured before and after a 12-h incubation by liquid-chromatography-coupled mass spectrometry (LC–MS); settings: 2 µM
[16] = The drug is tested on Bacteroides pectinophilus strain: ATCC43243 for biotransformation. The drug concentrations were measured before and after a 12-h incubation by liquid-chromatography-coupled mass spectrometry (LC–MS); settings: 2 µM
[17] = The drug is tested on Bacteroides xylanisolvens strain: DSM18836 for biotransformation. The drug concentrations were measured before and after a 12-h incubation by liquid-chromatography-coupled mass spectrometry (LC–MS); settings: 2 µM
[18] = bacteroides fragilis, 12 h, 2 µM; remark: listed apart in the source
Description: The drug is tested on Bacteroides fragilis strain: DS-208 for biotransformation. The drug concentrations were measured before and after a 12-h incubation by liquid-chromatography-coupled mass spectrometry (LC–MS)

[19] = bacteroides thetaiotaomicron, 12 h, 2 µM; remark: listed apart in the source
Description: The drug is tested on Bacteroides thetaiotaomicron strain: 3731 for biotransformation. The drug concentrations were measured before and after a 12-h incubation by liquid-chromatography-coupled mass spectrometry (LC–MS)

SMILES | Bacterial Biotransformation [1] | Bacterial Biotransformation [2] | Bacterial Biotransformation [3] | Bacterial Biotransformation [4] | Bacterial Biotransformation [5] | Bacterial Biotransformation [6] | Bacterial Biotransformation [7] | Bacterial Biotransformation [8] | Bacterial Biotransformation [9] | Bacterial Biotransformation [10] | Bacterial Biotransformation [11] | Bacterial Biotransformation [12] | Bacterial Biotransformation [13] | Bacterial Biotransformation [14] | Bacterial Biotransformation [15] | Bacterial Biotransformation [16] | Bacterial Biotransformation [17] | Bacterial Biotransformation [18] | Bacterial Biotransformation [19]
CC(C)(C)N.CCC[C@H](N[C@@H](C)C(=O)N1[C@H](C(=O)O)C[C@@H]2CCCC[C@@H]21)C(=O)OCC [PERINDOPRIL ERBUMINE] | Compound NOT metabolized | Compound NOT metabolized | Compound NOT metabolized | Compound NOT metabolized | Compound NOT metabolized | Compound NOT metabolized | Compound NOT metabolized | Compound NOT metabolized | Compound NOT metabolized | Compound NOT metabolized | Compound NOT metabolized | Compound NOT metabolized | Compound NOT metabolized | Compound NOT metabolized | Compound NOT metabolized | Compound NOT metabolized | Compound NOT metabolized |  | 
CC(C)c1nc(N(C)S(C)(=O)=O)nc(-c2ccc(F)cc2)c1/C=C/[C@@H](O)C[C@@H](O)CC(=O)[O-].CC(C)c1nc(N(C)S(C)(=O)=O)nc(-c2ccc(F)cc2)c1/C=C/[C@@H](O)C[C@@H](O)CC(=O)[O-].[Ca+2] [ROSUVASTATIN CALCIUM] | Compound NOT metabolized | Compound NOT metabolized | Compound NOT metabolized | Compound NOT metabolized | Compound NOT metabolized | Compound NOT metabolized | Compound NOT metabolized | Compound NOT metabolized | Compound NOT metabolized |  | Compound NOT metabolized | Compound NOT metabolized |  | Compound NOT metabolized | Compound NOT metabolized | Compound NOT metabolized | Compound NOT metabolized | Compound NOT metabolized | Compound NOT metabolized
O=C(CCCN1CCC2(CC1)C(=O)NCN2c1ccccc1)c1ccc(F)cc1 [SPIPERONE] | Compound NOT metabolized | Compound NOT metabolized | Compound NOT metabolized | Compound NOT metabolized | Compound NOT metabolized | Compound NOT metabolized | Compound NOT metabolized | Compound NOT metabolized | Compound NOT metabolized | Compound NOT metabolized |  | Compound NOT metabolized | Compound NOT metabolized | Compound NOT metabolized | Compound NOT metabolized | Compound NOT metabolized | Compound NOT metabolized | Compound NOT metabolized | Compound NOT metabolized
CCOC(=O)C1=C[C@]2(CC)CCCN3CCc4c(n1c1ccccc41)[C@@H]32 [VINPOCETINE] | Compound NOT metabolized | Compound NOT metabolized | Compound NOT metabolized | Compound NOT metabolized | Compound NOT metabolized | Compound NOT metabolized | Compound NOT metabolized | Compound NOT metabolized | Compound NOT metabolized | Compound NOT metabolized | Compound NOT metabolized | Compound metabolized | Compound NOT metabolized | Compound NOT metabolized | Compound NOT metabolized | Compound NOT metabolized |  | Compound NOT metabolized | Compound NOT metabolized
CCN(C(C)=O)c1cccc(-c2ccnc3c(C#N)cnn23)c1 [ZALEPLON] |  | Compound NOT metabolized | Compound NOT metabolized | Compound NOT metabolized | Compound NOT metabolized | Compound NOT metabolized |  | Compound NOT metabolized | Compound NOT metabolized |  | Compound NOT metabolized | Compound metabolized | Compound NOT metabolized | Compound NOT metabolized |  | Compound NOT metabolized | Compound metabolized | Compound NOT metabolized | 
COc1ccc(CN2CCNCC2)c(OC)c1OC.Cl.Cl [TRIMETAZIDINE DIHYDROCHLORIDE] | Compound metabolized | Compound NOT metabolized | Compound NOT metabolized | Compound NOT metabolized | Compound NOT metabolized | Compound metabolized | Compound NOT metabolized | Compound metabolized | Compound NOT metabolized | Compound metabolized | Compound NOT metabolized | Compound NOT metabolized | Compound metabolized | Compound NOT metabolized | Compound NOT metabolized | Compound NOT metabolized | Compound metabolized |  | Compound metabolized
CNNCc1ccc(C(=O)NC(C)C)cc1 [PROCARBAZINE] |  | Compound NOT metabolized | Compound NOT metabolized | Compound NOT metabolized | Compound NOT metabolized | Compound NOT metabolized | Compound NOT metabolized | Compound NOT metabolized | Compound NOT metabolized | Compound NOT metabolized | Compound NOT metabolized | Compound NOT metabolized | Compound NOT metabolized | Compound NOT metabolized | Compound NOT metabolized | Compound NOT metabolized | Compound NOT metabolized |  | Compound NOT metabolized
CC(C)NCC(O)c1ccc(NS(C)(=O)=O)cc1 (stereo unspecified) [SOTALOL] | Compound NOT metabolized | Compound NOT metabolized |  | Compound NOT metabolized | Compound NOT metabolized |  | Compound NOT metabolized | Compound metabolized | Compound NOT metabolized | Compound metabolized | Compound NOT metabolized | Compound NOT metabolized | Compound metabolized | Compound NOT metabolized | Compound NOT metabolized | Compound NOT metabolized | Compound NOT metabolized | Compound metabolized | Compound NOT metabolized
